According to patent US7569582B2, “Aminotropane derivatives, preparation thereof and therapeutic use thereof” (Sanofi-Aventis, priority 2004, dated 2009):
Counter-ions that a name gives are not always drawn.

Assays:
human MC4 receptor [1] = target: T1, human MC4 receptor (Homo sapiens, UniProt P32245); assay: Functional agonist assay: cAMP formation in CHO-K1 cells expressing the human MC4 receptor; assay type: cell-based; details: 1 hour incubation, 50% of the maximum stimulation obtained with the compound, read-out: EC50 with respect to the MC4 receptor
T1 construct: host or cells: CHO-K1
Experimental: (§1) A functional assay is used to differentiate between the agonist activity and the antagonist activity. For this, the formation of cyclic adenosine monophosphate (cAMP) generated by activation of the MC3 receptor or of the MC4 receptor is assayed.
CHO-K1 cells, expressing the human MC4 receptor at a moderate density (Euroscreen), are seeded into DMEM/Nutrient Mix F12 culture medium (Gibco/BR1) containing 10% of foetal calf serum, 0.5% sodium pyruvate, 1% L-glutamine, 1% non-essential amino acids, 200 mg/l hygromycin B and 0.5% PenStrep, these products being provided by Gibco/BR1, except the calf serum (Biowhittaker) and hygromycin B (Sigma).
(§2) The compounds to be tested (diluted in 10% DMSO), in an amount of 10 μl at a concentration of 10 times the final concentration, are added to the plates of cells (final volume=100 μl/well). After incubation for 1 hour (37° C., 5% CO2), the amount of cAMP is assayed using Tropix kits (Appelera) according to the supplier's documentation. The intrinsic activity of the compounds is calculated by comparing the stimulation of cAMP by these compounds to the stimulation induced by 30 nM of NDP[…]MSH (maximum of 100%). The EC50 value for the compounds corresponds to the concentration which produces 50% of the maximum stimulation obtained with this compound.

human MC4 receptor [2] = target: T1, human MC4 receptor; assay: Affinity assay: displacement of [125I]-[Nle4,D-Phe7]-α-MSH binding to membranes of CHO-K1 cells expressing hMC4 (SPA); details: displacement of specific radioligand binding by 50%; radioligand 100 pM; read-out: IC50 with respect to the MC4 receptor
Experimental: This affinity assay is carried out by measuring the binding of [^125I]-[Nle^4-D-Phe^7]-[…]-MSH to cell membranes. The displacement of this radioligand is used to identify inhibitors of the specific binding to recombinant melanocortin receptors.
For this assay, membranes prepared from CHO-K1 cells expressing the human MC4 receptor at high density (Euroscreen) or membranes, that were purchased (Perkin Elmer Life Sciences, Receptor Biology), of HEK-293 cells expressing hMC3 receptors were used. CHO-K1 cells transfected with the hMC4 receptor gene (Euroscreen) are seeded into DMEM/Nutrient Mix F12 culture medium containing 10% foetal calf serum (Biowhittaker), 1% sodium pyruvate, 1% L-glutamine, 1% non-essential amino acids, 0.4 mg/ml geneticin (G418) and 0.5% PenStrep, these products being provided by Gibco/BR1, except the calf serum. At 80% confluency, the cells are scraped off and the cell pellets are frozen at −80° C.
A tube of cells (approximately 70×10^6 cells) is thawed on ice and resuspended in 10 ml of binding buffer [25 mM HEPES, pH 7.0, 1 mM MgCl2, 1.5 mM CaCl2, 100 mM NaCl, 1 mM 1,10-phenanthroline and 1 tablet of Complete^TR (protease inhibitor from Roche) in 50 ml of buffer] using a polytron for 20 seconds. […] The nonspecific binding is defined by NDP-[…]MSH at 10^−7 M. The total binding is measured by the number of counts per minute in the presence of the radioligand alone. […]

human MC3 receptor = target: T2, human MC3 receptor (Homo sapiens, UniProt P41968); assay: Functional agonist assay: cAMP formation in CHO(dhfr-) cells expressing the human MC3 receptor; assay type: cell-based; details: 1 hour incubation, 50% of the maximum stimulation obtained with the compound, read-out: EC50 with respect to the MC3 receptor
T2 construct: expressed in transfected cells; host or cells: CHO(dhfr-)
Experimental: as §1
CHO(dhfr-) cells expressing the human MC3 receptor are seeded into MEM Eagle culture medium (Sigma) containing 10% of dialysed calf serum, 1% L-glutamine, 1% sodium pyruvate, 20 mg/500 ml L-proline, 0.3 mg/ml Geneticin and 0.5% PenStrep, these products being provided by Gibco/BRI, except for the dialysed calf serum (Cambrex) and the L-proline (Sigma).
as §2

T1 sequence (P32245 whole entry): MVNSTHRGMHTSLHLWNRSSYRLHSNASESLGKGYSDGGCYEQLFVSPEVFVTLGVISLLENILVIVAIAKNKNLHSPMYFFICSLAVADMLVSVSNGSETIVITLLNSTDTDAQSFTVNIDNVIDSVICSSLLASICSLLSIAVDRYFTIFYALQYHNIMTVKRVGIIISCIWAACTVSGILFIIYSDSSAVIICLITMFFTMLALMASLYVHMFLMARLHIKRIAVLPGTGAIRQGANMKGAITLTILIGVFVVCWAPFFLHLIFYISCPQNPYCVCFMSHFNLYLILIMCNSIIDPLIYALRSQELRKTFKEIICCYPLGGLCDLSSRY
T2 sequence (P41968 whole entry): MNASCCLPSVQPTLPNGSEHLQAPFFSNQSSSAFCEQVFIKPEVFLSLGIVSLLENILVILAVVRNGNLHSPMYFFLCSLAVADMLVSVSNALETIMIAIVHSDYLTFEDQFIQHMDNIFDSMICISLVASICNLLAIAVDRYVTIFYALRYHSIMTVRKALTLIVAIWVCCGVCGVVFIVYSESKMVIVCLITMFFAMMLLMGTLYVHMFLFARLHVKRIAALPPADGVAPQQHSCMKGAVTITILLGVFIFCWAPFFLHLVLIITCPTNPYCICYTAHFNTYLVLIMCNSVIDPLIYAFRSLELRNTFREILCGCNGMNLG

SMILES	melting point [°C]	other results
CCN(CC)C(=O)N(C1CCCCC1)C1CC2CCC(C1)N2C(=O)[C@@H](Cc1ccc(Cl)cc1)NC1CCSC1 (stereo partly shown) (as salt: HCl)	> 200	–
CCN(CC)C(=O)N(C1CCCCC1)C1CC2CCC(C1)N2C(=O)[C@@H](Cc1ccc(Cl)cc1)NC(C)/C=N/O (stereo partly shown) (as salt: HCl)	132	–
CCN(CC)C(=O)N(C1CCCCC1)C1CC2CCC(C1)N2C(=O)[C@@H](Cc1ccc(Cl)cc1)NCCN (stereo partly shown) (as salt: HCl)	105	–
CCN(CC)C(=O)N(C1CCCCC1)C1CC2CCC(C1)N2C(=O)[C@@H](Cc1ccc(Cl)cc1)NC1CCNC1 (stereo partly shown) (as salt: HCl)	220	–
CCN(CC)C(=O)N(C1CCCCC1)C1CC2CCC(C1)N2C(=O)[C@@H](Cc1ccc(Cl)cc1)NC1CNC1 (stereo partly shown) (as salt: HCl)	170	–
CCN(CC)C(=O)N(C1CCCCC1)C1CC2CCC(C1)N2C(=O)[C@@H](Cc1ccc(Cl)cc1)NCCCN (stereo partly shown) (as salt: HCl)	215	–
CCN(CC)C(=O)N(C1CCCCC1)C1CC2CCC(C1)N2C(=O)[C@@H](Cc1ccc(Cl)cc1)NC1CCC(N)CC1 (stereo partly drawn) [compound 3, N-{8-[N-(4-aminocyclohexyl)-4-chloro-D-phenylalanyl]-8-azabicyclo[3.2.1]oct-3-yl}-N-cyclohexyl-N′,N′-diethylurea]	–	EC50 (human MC4 receptor [1]): 28 nM; IC50 (human MC4 receptor [2]): 280 nM; EC50 (human MC3 receptor): 330 nM
CCN(CC)C(=O)N(C1CCCCC1)C1CC2CCC(C1)N2C(=O)[C@@H](Cc1ccc(Cl)cc1)NC1CCC(N)CC1 (stereo partly drawn) (as salt: HCl) [compound 3, N-{8-[N-(4-aminocyclohexyl)-4-chloro-D-phenylalanyl]-8-azabicyclo[3.2.1]oct-3-yl}-N-cyclohexyl-N′,N′-diethylurea]	208	–
